{"source": "patent US20080207760A1", "about": "“Pharmaceutical Compositions For and Methods of Inhibiting Hcv” (priority 2005, published 2008)", "key": {"synthetic NS4A [1]": {"molecular_target": "T1, synthetic NS4A (Hepatitis C virus genotype 1b, UniProt Q9WMX2)", "T1 construct": "The full length of NS4A (54 amino acids) is synthesized; made in house", "T1 sequence (Q9WMX2 1658-1711)": "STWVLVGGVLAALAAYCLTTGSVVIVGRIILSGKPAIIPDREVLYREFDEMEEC", "assay": "Competition assay with [3H] labeled azidoacylthiourea for NS4A binding", "parameters": "species or system HCV", "protocol": "(§1) To determine whether acylthiourea compounds bind to NS4A, a photo-affinity labeling is carried out, in which an [^3H] labeled photo-reactive azidoacylthiourea, 1-(5-Azido-benzofuran-2-carbonyl)-3-(4-pentyloxy-3-trifluoromethyl-phenyl)-thiourea, is mixed with synthetic NS4A at various molar ratios. The mixture is incubated at 31° C. for one hour. Samples are then illuminated by a UV lamp (254 nm wavelength) at room temperature for 7 minutes. After denaturing with equal volume of Laemmli buffer containing 5% mercaptoethanol at 99° C. for 5 minutes, samples are separated on a 10-20% SDS-PAGE. After electrophoresis, the gel is fixed with 30% methanol—10% acetic acid overnight. Then the gel is treated with 3H enhancer solution (PerkinElmer) at room temperature for one hour, and subsequently with water for 30 minutes, and dried under vacuum.\nTo study the binding specificity of [^3H] labeled 1-(5-Azido-benzofuran-2-carbonyl)-3-(4-pentyloxy-3-trifluoromethyl-phenyl)-thiourea to synthetic NS4A, several structurally related compounds are used in the following competition assays. Non-labeled 1-(5-Azido-benzofuran-2-carbonyl)-3-(4-pentyloxy-3-trifluoromethyl-phenyl)-thiourea shares the same structure with [^3H] labeled 1-(5-Azido-benzofuran-2-carbonyl)-3-(4-pentyloxy-3-trifluoromethyl-phenyl)-thiourea. 1-(5-Azido-benzofuran-2-carbonyl)-3-(4-pentyloxy-3-trifluoromethyl-phenyl)-urea differs in structure from 1-(5-Azido-benzofuran-2-carbonyl)-3-(4-pentyloxy-3-trifluoromethyl-phenyl)-thiourea in that 1-(5-Azido-benzofuran-2-carbonyl)-3-(4-pentyloxy-3-trifluoromethyl-phenyl)-urea has a carbonyl group where 1-(5-Azido-benzofuran-2-carbonyl)-3-(4-pentyloxy-3-trifluoromethyl-phenyl)-thiourea has a thiocarbonyl group. […]"}, "HCV replicon cells": {"tested_on": "HCV replicon cells", "assay": "HCV replicon assay (RNA dot blot or NPTII ELISA)", "assay_type": "cell-based", "protocol": "Cells expressing the HCV replicon are seeded onto the internal wells of 96-well plates at a density of 7,000 cells per well. One day later, different dilutions of the test compounds are added to corresponding wells and the plates are incubated in a CO2 incubator for 72 hours. After treatment, the cells are lysed with 70 μl RLN buffer per well (50 mM Tris-HCl [pH8.0], 140 mM NaCl, 1.5 mM MgCl2, 0.5% Nonidet P-40, 1,000 units/mL RNAsin and 1 mM […]). The total lysate is transferred to a new U bottom 96-well plate and nuclei and cell debris are pelleted with a brief spin (300×g for 3 minutes). 50 μl of supernatant is removed from the well and loaded directly onto manifold wells equipped with Nylon membranes. HCV RNA is hybridized at 58° C. overnight using a labeled HCV RNA probe containing a negative strand sequence complement to the NS5B region. Hybridization buffer is composed of 50% formamide, 5×SSPE, 1% SDS, 5× Denhart's solution, and sheared denatured salmon sperm DNA. Following hybridization, the membrane is washed with washing buffer (0.1×SSC, 0.1% SDS) at room temperature for two hours, then at 65° C. for 30 minutes. The radioactivity in each well is counted on a Microbeta counter and EC50 is calculated based on cpm. Alternatively, HCV replicon cells are trypsinized for 5-10 minutes in a CO2 incubator. Then, cells are placed in a 15 mL tube, and are spun at 1000 rpm for 4 minutes and trypsin solution is removed. Cell pellets are washed once with PBS and spun 4 minutes at 1000 rpm.\nTrypsinization and wash steps, supra, are conducted efficiently to minimize cell death. PBS is removed and cells are resuspended in 4 mL fresh PBS and cells are seeded at a dilution of 5000 cells per well to 96 well plates. Test compounds are diluted in 96 well U bottom plates with DMEM (high glucose) (BRL, Catalog #21063) supplemented with 10% FBS, L-glutamine, and non-essential amino acid. 100 uL of test compound is loaded into each well. […]\n100 uL of development solution (TMB one-step substrate system) is added and plates are developed in the dark for 10 to 30 minutes. […] OD450 is measured. […]"}, "NS3 protease domain": {"molecular_target": "NS3 protease domain (Hepatitis C virus genotype 1b, UniProt Q9WMX2)", "sequence (Q9WMX2 1027-1208)": "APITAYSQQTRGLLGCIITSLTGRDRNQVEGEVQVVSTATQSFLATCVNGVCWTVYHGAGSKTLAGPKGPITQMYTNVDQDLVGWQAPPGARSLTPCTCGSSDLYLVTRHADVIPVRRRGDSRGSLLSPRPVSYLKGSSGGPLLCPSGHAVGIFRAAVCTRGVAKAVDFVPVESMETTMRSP", "assay": "Photo-affinity labeling", "assay_type": "binding, HCV", "details": "[3H] labeled compound; same molar ratio as NS4A (3.3 μM)", "protocol": "as §1\n(§2) One band corresponds to NS4A monomer, which is also detectable with Coomassie blue staining (FIG. 3). […] Without being bound by any particular theory, it is believed that this band may be composed largely of polymer form or aggregates of NS4A. At the same time, full-length NS3 and NS3 protease domain is included in this binding assay."}, "full-length NS3": {"molecular_target": "full-length NS3 (Hepatitis C virus genotype 1b, UniProt Q9WMX2)", "sequence (Q9WMX2 1027-1657)": "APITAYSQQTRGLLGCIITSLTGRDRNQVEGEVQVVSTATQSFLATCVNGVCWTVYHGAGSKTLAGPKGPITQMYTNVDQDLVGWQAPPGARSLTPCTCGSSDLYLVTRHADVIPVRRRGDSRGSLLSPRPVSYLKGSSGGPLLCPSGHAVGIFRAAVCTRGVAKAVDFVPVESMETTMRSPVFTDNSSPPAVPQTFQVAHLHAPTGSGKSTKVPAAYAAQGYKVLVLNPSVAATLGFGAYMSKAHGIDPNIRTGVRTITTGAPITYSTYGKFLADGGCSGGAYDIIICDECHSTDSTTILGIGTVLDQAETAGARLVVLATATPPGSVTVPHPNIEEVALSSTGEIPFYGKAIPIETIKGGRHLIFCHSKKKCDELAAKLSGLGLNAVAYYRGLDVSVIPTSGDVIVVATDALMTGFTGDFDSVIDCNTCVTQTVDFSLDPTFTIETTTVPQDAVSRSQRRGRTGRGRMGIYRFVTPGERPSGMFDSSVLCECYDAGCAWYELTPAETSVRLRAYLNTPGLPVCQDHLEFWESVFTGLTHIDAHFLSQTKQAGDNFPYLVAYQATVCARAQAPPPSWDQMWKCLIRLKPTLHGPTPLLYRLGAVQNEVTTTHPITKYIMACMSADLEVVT", "assay": "Photo-affinity labeling", "assay_type": "binding, HCV", "details": "[3H] labeled compound; same molar ratio as NS4A (3.3 μM)", "protocol": "as §1, §2"}, "synthetic NS4A [2]": {"molecular_target": "T1, synthetic NS4A", "assay": "Photo-affinity labeling", "assay_type": "binding, HCV", "details": "[3H] labeled compound, UV 254 nm, SDS-PAGE", "protocol": "Experiments are undertaken to investigate the affinity and binding specificity of acylthiourea compounds to NS4A. The full length of NS4A (54 amino acids) is synthesized, and characterized with mass spectral analysis and HPLC profiling. An NS4A sample is then dissolved in 100% dimethylsulphoxide (DMSO) at a concentration of 2 μg/μl and subjected to a 10-20% SDS-PAGE with a reducing reagent. A 6 kDa protein band, consistent with the size of NS4A, is detected in the gel following a Coomassie blue staining. The NS4A identity of this band is further confirmed by a Western blot with monoclonal anti-NS4A antibody.\nas §1, with “Then the gel is treated with 3H enhancer solution (PerkinElmer) at room temperature for one hour, and subsequently with water for 30 minutes, and dried under vacuum.” left out"}}, "note": "“Also recorded” adds a separate entry of the source."}
{"smiles": "CCCCCOc1ccc(NC(=S)NC(=O)c2cc3ccccc3o2)cc1C(F)(F)F", "note": "[1-(Benzofuran-2-carbonyl)-3-(4-pentyloxy-3-trifluoromethyl-phenyl)-thiourea]", "values": [{"measurement": "competition with [3H] labeled 1-(5-Azido-benzofuran-2-carbonyl)-3-(4-pentyloxy-3-trifluoromethyl-phenyl)-thiourea for NS4A binding", "setting": "synthetic NS4A [1]", "value": "effectively compete"}, {"measurement": "anti-HCV activity in replicon cells", "setting": "HCV replicon cells", "value": "exhibit anti-HCV activities in replicon cells"}]}
{"smiles": "CCCCCOc1ccc(NC(=O)NC(=O)c2cc3cc(N=[N+]=[N-])ccc3o2)cc1C(F)(F)F", "note": "[1-(5-Azido-benzofuran-2-carbonyl)-3-(4-pentyloxy-3-trifluoromethyl-phenyl)-urea]", "values": [{"measurement": "competition with [3H] labeled 1-(5-Azido-benzofuran-2-carbonyl)-3-(4-pentyloxy-3-trifluoromethyl-phenyl)-thiourea for NS4A binding", "setting": "synthetic NS4A [1]", "value": "does not compete; also recorded: appears to abolish this competition capacity"}, {"measurement": "anti-HCV activity in replicon cells", "setting": "HCV replicon cells", "value": "does not exhibit any anti-HCV activity in replicon cells"}]}
{"smiles": "CCCCCOc1ccc(NC(=S)NC(=O)c2cccnc2)cc1C(F)(F)F", "note": "[1-(4-Pentyloxy-3-trifluoromethyl-phenyl)-3-(pyridine-3-carbonyl)-thiourea]", "values": [{"measurement": "competition with [3H] labeled 1-(5-Azido-benzofuran-2-carbonyl)-3-(4-pentyloxy-3-trifluoromethyl-phenyl)-thiourea for NS4A binding", "setting": "synthetic NS4A [1]", "value": "effectively compete"}, {"measurement": "anti-HCV activity in replicon cells", "setting": "HCV replicon cells", "value": "exhibit anti-HCV activities in replicon cells"}]}
{"smiles": "CCCCCOc1ccc(NC(=S)NC(=O)c2cc3cc(N=[N+]=[N-])ccc3o2)cc1C(F)(F)F", "note": "[1-(5-Azido-benzofuran-2-carbonyl)-3-(4-pentyloxy-3-trifluoromethyl-phenyl)-thiourea]", "values": [{"measurement": "binding to NS3 protease domain", "setting": "NS3 protease domain", "value": "only weak binding signals"}, {"measurement": "binding to full-length NS3", "setting": "full-length NS3", "value": "only weak binding signals"}, {"measurement": "binding to synthetic NS4A", "setting": "synthetic NS4A [2]", "value": "binds to synthetic NS4A; also recorded: two radioactive bands are shown in the gel"}]}
